Consider seven compounds from publication PMC12297887, “Enhanced Anticancer Potential of Pd(II)-Thiosemicarbazone Complexes: Selectivity, Mechanisms, and 3D Models” (Pharmaceutics, 2025).

One data set deals with A2780 (ovarian cancer). The data set is described as follows: Cell viability (MTT), A2780. Format: cell-based. The conditions noted are these: for IC50: 48 h of incubation, MTT; for Selectivity index (SI) A2780: IC50 MRC5 / IC50 A2780. As for the experimental part: (§1) The cell lines used in the tests were A2780 (ovarian cancer), A2780cis (ovarian cisplatin resistant cancer), A549 (lung cancer), MRC5 (non-tumoral lung […]), MDA-MB-231 (triple-negative breast cancer), MCF-7 (breast cancer), SK-BR-3 (breast cancer), MCF-10A (non-tumoral breast cancer), and A375 (skin cancer—melanoma).
(§2) The MCF-10A cell line was grown in DMEM/F-12 culture medium, supplemented with 5% horse serum, human epidermal growth factor (EGF) (20 ng/mL), hydrocortisone (0.05 mg/mL), insulin (0.01 mg/mL), penicillin (1%), streptomycin (1%), and L-glutamine (2 mM). The A2780, A2780cis, and MCF-7 cell lines were cultured in RPMI-1640 medium, and the other lines in DMEM medium; both culture media were supplemented with 10% (v/v) FBS (fetal bovine serum), antibiotics, and antimycotics. Cultivation was carried out in culture flasks stored in a humid incubator at 37 °C, with an atmosphere of 5% CO2.
(§3) The plates were kept for 24 h in a humidified incubator (37 °C, 5% CO2), after which 0.75 μL of a DMSO solution (0.5% v/v) containing the compounds of interest was added to each well. The plates were then incubated for a further 48 h. The ratio of viability of cells was obtained using the MTT method. Through its reduction via the mitochondrial process, purple formazan is formed, which is proportional to cell viability. After incubating the microplates, 50 μL of a solution of MTT (1 mg∙mL^−1) in PBS was added to each well and the cells were incubated again in the oven for 4 h. Finally, the solution was removed from each well and 100 μL of isopropyl alcohol with 10% DMSO was added to solubilize the Formazan crystals. Absorbance measurements (540 nm) were then taken in each well using a BioTek EPOCH spectrophotometer (BioTek, Winooski, WT, USA). The data obtained was analyzed using Excel 360 and GraphPadPrism 8.0.2.

Data set [1] deals with MDA-MB-231 (triple-negative breast cancer). The data set is described as follows: Cell viability (MTT), MDA-MB-231. Format: cell-based, human. The settings on record: for IC50: 48 h of incubation, MTT; for Selectivity index (SI) MDA-MB-231: IC50 MRC5 / IC50 MDA-MB-231. As for the experimental part: as §1, §2, §3
Data set [2] deals with A2780cis (ovarian cisplatin resistant cancer). The data set is described as follows: Cell viability (MTT), A2780cis. In kind it is cell-based. The conditions noted are these: for IC50: 48 h of incubation, MTT; for resistance factor (RF): IC50(A2780cis)/IC50(A2780); for Selectivity index (SI) A2780cis: IC50 MRC5 / IC50 A2780cis. As for the experimental part:
as §1, §2, §3

The test system of the next data set is MRC5 (non-tumoral lung). The data set is described as follows: Cell viability (MTT), MRC5. Format: cell-based. The conditions noted are these: 48 h of incubation, non-tumor lung fibroblast. As for the experimental part:
as §1, §2, §3

Data set [3] concerns A375 (skin cancer, melanoma). The data set is described as follows: Cell viability (MTT), A375. Format: cell-based. The conditions noted are these: 48 h of incubation. As for the experimental part: as §1, §2, §3
The next data set relates to A549 (lung cancer). The data set is described as follows: Cell viability (MTT), A549. In kind it is cell-based. The conditions noted are these: for IC50: 48 h of incubation, MTT; for Selectivity index (SI) A549: IC50 MRC5 / IC50 A549. As for the experimental part:
as §1, §2, §3

For the next data set, the system named is MCF-7 (breast cancer). The data set is described as follows: Cell viability (MTT), MCF-7. The conditions noted are these: for IC50: 48 h of incubation, MTT; for Selectivity index (SI) MCF-7: IC50 MRC5 / IC50 MCF-7. In kind it is cell-based, human. As for the experimental part: as §1, §2, §3
Data set [4] deals with MCF-10A (non-tumoral breast). The data set is described as follows: Cell viability (MTT), MCF-10A. The conditions noted are these: 48 h of incubation, non-tumorigenic breast line, read-out: IC50 MFC-10A. In kind it is cell-based, human. As for the experimental part:
as §1, §2, §3

For the next data set, the system named is SK-BR-3 (breast cancer). The data set is described as follows: Cell viability (MTT), SK-BR-3. Format: cell-based, human. The settings on record: for IC50: 48 h of incubation, MTT; for Selectivity index (SI) SK-BR-3: IC50 MRC5 / IC50 SK-BR-3. As for the experimental part:
as §1, §2, §3

A short description of data set [5]: Stability in DMSO by 31P{1H} NMR. Format: physicochemical. The settings on record: d6-DMSO, after 48 h, no change in chemical shift. As for the experimental part: The ^31P{^1H} NMR experiment was also carried out and the chemical shift values of the different complexes synthesized were similar to each other. There was a shift in the free PPh3 signal from −6.81 ppm to 30 ppm (Figure S12), indicating a reduction in the electronic density at the P of the triphenylphosphine due to coordination with Pd(II). Also, the PdB3 complex was tested for stability in DMSO.

Another data set concerns A2780cis cells. The data set is described as follows: Clonogenic assay. The settings on record: concentrations in relation to the IC50 of each complex, five days of treatment. In kind it is cell-based. As for the experimental part:
For this test, 600 cells of the A2780cis strain were added to each well of a six-well microplate. After incubating for 24 h in a 5% CO2 atmosphere, different concentrations of the compounds were added to the wells and incubated again for five days. After this period, the culture medium was changed and the plates were incubated for a further five days. Finally, the culture medium was removed and washed with PBS. Subsequently, a solution of methanol and acetic acid (3:1 v/v) was added for five minutes, and then the cells were stained with methyl violet solution. The plates were washed with distilled water. After drying, they were photographed using the iBright™ FL1500 (ThermoFisher, Waltham, MA, USA) and analyzed using ImageJ 1.53 software.

Regarding `N.N.[Cl][Pt][Cl]` [Cisplatin, reference compound], the IC50 in the data set with A2780 (ovarian cancer) amounted to 14240 ± 50 nM; in [1], 33.14 ± 0.3 µM; in data set [2] it was 25100 ± 900 nM; with MRC5 (non-tumoral lung), 21.6 ± 0.8 µM; in [3], 12.2 ± 0.62 µM; with A549 (lung cancer), 13 ± 0.4 µM. The IC50 in the data set on MCF-7 (breast cancer) worked out at 8.64 ± 0.8 µM; in data set [4], 23.9 ± 0.7 µM; with SK-BR-3 (breast cancer), 5860 ± 200 nM. Also, in the data set on A2780 (ovarian cancer), the “Selectivity index (SI) A2780” value is recorded as 1.5. Also, the “Selectivity index (SI) MDA-MB-231” value in data set [1] is 0.7. The “resistance factor (RF)” value in data set [2] was found to be 1.76. In addition, the “Selectivity index (SI) A2780cis” value in data set [2] turned out to be 0.9. In the data set on A549 (lung cancer), the “Selectivity index (SI) A549” value amounted to 1.7. In addition, in the data set with MCF-7 (breast cancer), the “Selectivity index (SI) MCF-7” value stood at 2.5. In the data set on SK-BR-3 (breast cancer), the “Selectivity index (SI) SK-BR-3” value was found to be 3.7.

Take `CNC(NN=C(C)C=Cc1ccccc1)=[S][Pd]([Cl])[P](c1ccccc1)(c1ccccc1)c1ccccc1.[Cl-]` [PdB2]: in the data set with A2780 (ovarian cancer), the IC50 came to 130 ± 10 nM and the “Selectivity index (SI) A2780” value came out at 52.7. Moreover, in [1], the IC50 worked out at 0.92 ± 0.08 µM and the “Selectivity index (SI) MDA-MB-231” value is given as 7.4. Further, in data set [2], the IC50 stood at 210 ± 10 nM, the “resistance factor (RF)” value is 1.62 and the “Selectivity index (SI) A2780cis” value was found to be 32.6. In the data set with MRC5 (non-tumoral lung), this compound showed an IC50 of 6.85 ± 0.3 µM. Further, in the data set on A549 (lung cancer), 30.4 ± 0.4 µM corresponded to half-maximal inhibition (IC50) and the “Selectivity index (SI) A549” value amounted to 0.2. In addition, in the data set with MCF-7 (breast cancer), the IC50 was found to be 1.47 ± 0.2 µM and the “Selectivity index (SI) MCF-7” value came out at 4.7. In the data set on SK-BR-3 (breast cancer), the IC50 came out at 1480 ± 60 nM and the “Selectivity index (SI) SK-BR-3” value is given as 4.6.

In the case of `CCNC1=[S+][Pd-]([Cl])([PH](c2ccccc2)(c2ccccc2)c2ccccc2)[N+](=C(C)/C=C/c2ccccc2)N1.[Cl-]` [PdB3, [PdCl(L-B3)(PPh3)]Cl], in the data set on A2780 (ovarian cancer), half-maximal inhibition (IC50) was put at 230 ± 10 nM and the “Selectivity index (SI) A2780” value worked out at 40.3. Moreover, in data set [1], half-maximal inhibition (IC50) required 1.04 ± 0.06 µM and the “Selectivity index (SI) MDA-MB-231” value came to 8.9. For the same compound, in data set [2], half-maximal inhibition (IC50) required 260 ± 10 nM, the “resistance factor (RF)” value stood at 1.13 and the “Selectivity index (SI) A2780cis” value was determined as 35.7. Also, the IC50 in the data set on MRC5 (non-tumoral lung) stood at 9.28 ± 0.3 µM. The “stability in DMSO” value in data set [5] is “remained stable”. Moreover, in the data set with A549 (lung cancer), 13 ± 1 µM corresponded to half-maximal inhibition (IC50) and the “Selectivity index (SI) A549” value was 0.7. Moreover, in the data set on MCF-7 (breast cancer), inhibition was half-maximal at 0.91 ± 0.008 µM (IC50) and the “Selectivity index (SI) MCF-7” value came out at 10.2. This compound also came in with an IC50 in the data set with SK-BR-3 (breast cancer) below 2000 nM.

With `NC1=[S+][Pd-]([Cl])([PH](c2ccccc2)(c2ccccc2)c2ccccc2)[N+](=C(/C=C/c2ccccc2)c2ccccc2)N1.[Cl-]` [PdC1, [PdCl(L-C1)(PPh3)]Cl], the IC50 was 400 ± 10 nM with A2780 (ovarian cancer); 5.97 ± 0.1 µM in [1]; 620 ± 10 nM in data set [2]; 46.8 ± 2 µM in the data set with MRC5 (non-tumoral lung); above 50 µM in data set [3]; above 50 µM with A549 (lung cancer). Besides, the concentration for half-maximal inhibition (IC50) was 17.7 ± 1 µM in the data set on MCF-7 (breast cancer), 2.64 ± 0.06 µM in [4] and 2250 ± 300 nM in the data set on SK-BR-3 (breast cancer). The “Selectivity index (SI) A2780” value in the data set with A2780 (ovarian cancer) turned out to be 116.9. For the same compound, the “Selectivity index (SI) MDA-MB-231” value in data set [1] stood at 7.8. In [2], the “resistance factor (RF)” value is on record as 1.55. In addition, the “Selectivity index (SI) A2780cis” value in data set [2] is listed as 75.4. Also, the colony formation entry with A2780cis cells is recorded as “reduced colony formation”. Besides, the “Selectivity index (SI) MCF-7” value in the data set with MCF-7 (breast cancer) was 2.6. The “Selectivity index (SI) SK-BR-3” value in the data set on SK-BR-3 (breast cancer) came out at 20.8.

As for `CNC1=[S+][Pd-]([Cl])([PH](c2ccccc2)(c2ccccc2)c2ccccc2)[N+](=C(/C=C/c2ccccc2)c2ccccc2)N1.[Cl-]` [PdC2, [PdCl(L-C2)(PPh3)]Cl], the IC50 in the data set on A2780 (ovarian cancer) was 3930 ± 200 nM; in data set [1], 9.66 ± 0.4 µM; in data set [2] it was 1660 ± 10 nM; with MRC5 (non-tumoral lung) it was above 50 µM; with A549 (lung cancer), above 50 µM; with MCF-7 (breast cancer), above 50 µM. In the data set on SK-BR-3 (breast cancer), this compound had an IC50 above 50000 nM. Further, in [2], the “resistance factor (RF)” value was 0.42.

As to `CCNC1=[S+][Pd-]([Cl])([PH](c2ccccc2)(c2ccccc2)c2ccccc2)[N+](=C(/C=C/c2ccccc2)c2ccccc2)N1.[Cl-]` [PdC3, [PdCl(L-C3)(PPh3)]Cl], the IC50 is 22800 ± 1000 nM in the data set on A2780 (ovarian cancer); above 50 µM in data set [1]; 11100 ± 600 nM in data set [2]; above 50 µM with MRC5 (non-tumoral lung); above 50 µM in the data set on A549 (lung cancer); above 50 µM in the data set on MCF-7 (breast cancer). This compound also gave an IC50 in the data set on SK-BR-3 (breast cancer) above 50000 nM. Moreover, the “resistance factor (RF)” value in data set [2] is reported as 0.48.

For `CC#N.CC#N.[Cl][Pd][Cl]` [[PdCl2(MeCN)2], reference compound], the IC50 in data set [1] is above 50 µM; in [2], above 50000 nM; in the data set on MRC5 (non-tumoral lung), above 50 µM; in the data set with A549 (lung cancer) it was above 50 µM.
